Active and inactive are the calls of the source. The rule behind the calls is not given here.
Tests used:
MDA-MB-231 [1] = experiment: Antiproliferative activity against human MDA-MB-231 cells incubated for 3 to 5 days by MTT assay; assay type: functional, cell-based
4T1 = experiment: Antiproliferative activity against mouse 4T1 cells incubated for 3 to 5 days by MTT assay; assay type: functional, cell-based
[2] = molecular target: T1, Histone-lysine N-methyltransferase EHMT2 (Homo sapiens) (UniProt Q96KQ7); experiment: Inhibition of G9a (unknown origin) at 1 uM by AlphaLISA immunodetection assay relative to control
T1 sequence (whole entry): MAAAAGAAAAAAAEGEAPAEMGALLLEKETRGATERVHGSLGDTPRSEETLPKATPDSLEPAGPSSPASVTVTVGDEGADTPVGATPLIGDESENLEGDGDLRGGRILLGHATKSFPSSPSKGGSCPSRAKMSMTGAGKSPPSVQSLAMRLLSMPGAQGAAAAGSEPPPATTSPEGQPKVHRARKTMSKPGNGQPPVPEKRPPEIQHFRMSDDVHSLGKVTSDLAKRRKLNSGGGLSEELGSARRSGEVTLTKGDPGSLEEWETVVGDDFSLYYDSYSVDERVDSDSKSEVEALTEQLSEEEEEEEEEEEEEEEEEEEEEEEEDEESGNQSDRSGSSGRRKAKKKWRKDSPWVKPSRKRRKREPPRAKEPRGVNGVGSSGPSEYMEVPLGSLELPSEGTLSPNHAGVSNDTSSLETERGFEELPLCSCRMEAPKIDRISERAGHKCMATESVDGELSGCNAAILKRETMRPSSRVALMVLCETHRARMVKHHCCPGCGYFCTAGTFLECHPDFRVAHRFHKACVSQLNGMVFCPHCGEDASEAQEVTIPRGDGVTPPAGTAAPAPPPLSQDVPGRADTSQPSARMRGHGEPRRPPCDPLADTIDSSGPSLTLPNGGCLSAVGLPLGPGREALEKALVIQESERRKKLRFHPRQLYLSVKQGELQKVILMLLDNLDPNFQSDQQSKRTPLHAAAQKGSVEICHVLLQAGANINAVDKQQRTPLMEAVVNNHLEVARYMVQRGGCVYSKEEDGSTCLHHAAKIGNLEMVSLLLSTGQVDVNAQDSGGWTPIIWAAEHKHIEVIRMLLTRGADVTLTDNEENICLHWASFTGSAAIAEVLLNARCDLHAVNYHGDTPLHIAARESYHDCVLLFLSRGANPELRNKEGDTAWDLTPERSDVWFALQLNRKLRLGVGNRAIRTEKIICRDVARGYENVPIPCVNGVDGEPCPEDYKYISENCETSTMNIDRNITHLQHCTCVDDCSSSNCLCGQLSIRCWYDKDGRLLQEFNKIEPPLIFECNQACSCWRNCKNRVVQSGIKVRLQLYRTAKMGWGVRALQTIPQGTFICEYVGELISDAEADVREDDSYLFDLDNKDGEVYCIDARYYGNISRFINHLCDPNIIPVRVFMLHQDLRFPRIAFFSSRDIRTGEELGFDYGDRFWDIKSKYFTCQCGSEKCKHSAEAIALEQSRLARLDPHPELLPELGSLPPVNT

[3] = molecular target: T2, Histone-lysine N-methyltransferase EHMT1 (Homo sapiens) (UniProt Q9H9B1); experiment: Inhibition of GLP (unknown origin) at 1 uM
T2 sequence (whole entry): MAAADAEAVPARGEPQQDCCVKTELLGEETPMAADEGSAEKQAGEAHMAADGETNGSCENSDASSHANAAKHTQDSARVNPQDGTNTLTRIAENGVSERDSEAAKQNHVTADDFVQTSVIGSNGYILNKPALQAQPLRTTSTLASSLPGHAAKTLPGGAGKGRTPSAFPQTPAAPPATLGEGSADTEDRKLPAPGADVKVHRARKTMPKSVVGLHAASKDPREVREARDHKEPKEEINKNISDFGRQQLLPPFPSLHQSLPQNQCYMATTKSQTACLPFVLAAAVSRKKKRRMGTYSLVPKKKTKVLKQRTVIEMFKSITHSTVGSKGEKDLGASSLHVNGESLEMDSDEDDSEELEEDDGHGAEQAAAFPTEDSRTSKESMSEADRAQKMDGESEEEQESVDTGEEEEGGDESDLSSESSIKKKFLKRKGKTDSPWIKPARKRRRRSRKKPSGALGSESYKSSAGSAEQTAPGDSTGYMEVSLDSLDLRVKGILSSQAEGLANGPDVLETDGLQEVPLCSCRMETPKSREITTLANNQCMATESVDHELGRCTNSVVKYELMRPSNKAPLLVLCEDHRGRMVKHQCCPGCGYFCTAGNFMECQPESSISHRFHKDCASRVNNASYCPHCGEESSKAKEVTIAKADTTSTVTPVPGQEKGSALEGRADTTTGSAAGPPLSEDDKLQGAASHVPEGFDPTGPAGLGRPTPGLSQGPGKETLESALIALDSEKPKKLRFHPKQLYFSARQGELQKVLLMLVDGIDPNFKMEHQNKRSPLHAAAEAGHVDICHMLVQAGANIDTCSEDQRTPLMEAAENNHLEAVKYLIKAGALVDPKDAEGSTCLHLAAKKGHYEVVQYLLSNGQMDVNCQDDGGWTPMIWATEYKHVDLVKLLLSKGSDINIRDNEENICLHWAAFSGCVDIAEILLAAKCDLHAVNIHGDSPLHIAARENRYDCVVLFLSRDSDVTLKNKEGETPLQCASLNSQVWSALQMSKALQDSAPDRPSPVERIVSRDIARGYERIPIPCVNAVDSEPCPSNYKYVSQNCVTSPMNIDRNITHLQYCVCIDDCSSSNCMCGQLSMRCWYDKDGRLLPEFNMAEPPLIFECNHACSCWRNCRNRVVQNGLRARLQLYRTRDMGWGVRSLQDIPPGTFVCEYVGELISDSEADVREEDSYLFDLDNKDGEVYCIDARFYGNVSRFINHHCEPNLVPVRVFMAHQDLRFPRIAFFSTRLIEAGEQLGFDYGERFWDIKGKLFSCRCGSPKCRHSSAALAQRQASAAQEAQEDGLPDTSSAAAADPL

MDA-MB-231 [4] = experiment: Antiproliferative activity against human MDA-MB-231 cells after 5 days by MTT assay; assay type: functional, cell-based; details: MDA-MB-231, 120 h
MDA-MB-231 [5] = experiment: Inhibition of colony formation in human MDA-MB-231 cells at 1 to 10 uM refreshed every 4 days for 12 days by crystal violet staining based assay; assay type: functional, cell-based; details: dose 1-10 µM, time 12.0 day
MDA-MB-231 [6] = experiment: Induction of apoptosis in human MDA-MB-231 cells assessed as viable cells at 20 uM incubated for 72 hrs by Annexin V and PI staining based flow cytometry analysis (reference value: 98.31 %); assay type: functional; details: read-out: Activity
MDA-MB-231 [7] = experiment: Induction of apoptosis in human MDA-MB-231 cells assessed as early apoptotic cells at 20 uM incubated for 72 hrs by Annexin V and PI staining based flow cytometry analysis (reference value: 0.92 %); assay type: functional
MDA-MB-231 [8] = experiment: Induction of apoptosis in human MDA-MB-231 cells assessed as late apoptotic cells at 20 uM incubated for 72 hrs by Annexin V and PI staining based flow cytometry analysis (reference value: 0.45 %); assay type: functional
MDA-MB-231 [9] = experiment: Induction of apoptosis in human MDA-MB-231 cells assessed as necrotic cells at 20 uM incubated for 72 hrs by Annexin V and PI staining based flow cytometry analysis (reference value: 0.32 %); assay type: functional
[10] = molecular target: T3, Histone-lysine N-methyltransferase EHMT1/EHMT2 (Homo sapiens) (UniProt Q9H9B1+Q96KQ7); experiment: Inhibition of G9a/GLP in human MDA-MB-231 cells assessed as reduction in H3K9 dimethylation incubated for 3 days by Western blotting analysis; assay type: cell-based; details: dose 2.5-20 µM, time 3.0 day
MDA-MB-231 [11] = experiment: Antiproliferative activity against human MDA-MB-231 cells assessed as cell growth inhibition at 20 uM incubated for 1 day followed by compound washout and measured after 1 to 4 days; assay type: functional, cell-based
[12] = molecular target: T3, Histone-lysine N-methyltransferase EHMT1/EHMT2 (Homo sapiens); experiment: Inhibition of G9a/GLP in human MDA-MB-231 cells assessed as reduction in H3K9 dimethylation at 20 uM incubated for 1 day followed by compound washout and measured after 1 to 4 days; assay type: cell-based
[13] = Cytotoxicity against human L02 cells assessed as reduction in cell viability incubated for 2 days by MTT assay; assay type: toxicity, cell-based
[14] = molecular target: T1, Histone-lysine N-methyltransferase EHMT2 (Homo sapiens); experiment: Inhibition of G9a (unknown origin)
[15] = molecular target: T3, Histone-lysine N-methyltransferase EHMT1/EHMT2 (Homo sapiens); experiment: Inhibition of G9a/GLP in human MDA-MB-231 cells assessed as reduction in H3K9 dimethylation at 20 uM incubated for 3 days by Western blotting analysis; assay type: cell-based; details: time 3.0 day
[16] = Mus musculus, 4T1, read-out: IC50

Row | Structure (SMILES) | IC50 (MDA-MB-231 [1]) | IC50 (4T1; [16]) | inhibition [2] | further results
1 | C=CC(=O)Nc1ccc(C)c(-c2nc(NC3CCN(C(C)C)CC3)c3cc(OC)c(OC)cc3n2)c1 | 18300 nM | 25.6 µM | – | –
2 | CCC(=O)N1CC=C(c2nc(NC3CCN(C)CC3)c3cc(OC)c(OC)cc3n2)C1 | – | – | – | inhibition [14]: inactive
3 | CCC(=O)Nc1cccc(-c2nc(NC3CCN(C)CC3)c3cc(OC)c(OC)cc3n2)c1 | – | – | – | inhibition [14]: inactive; viability at 20 µM (MDA-MB-231 [6]): 82.7%; Activity (MDA-MB-231 [7]): 8.69%; Activity (MDA-MB-231 [8]): 7.29%; Activity (MDA-MB-231 [9]): 1.32%; inhibition [15]: Active; Activity (MDA-MB-231 [11]): inactive
4 | C=CC(=O)N1CCC=C(c2nc(NC3CCN(C(C)C)CC3)c3cc(OC)c(OC)cc3n2)C1 | 13400 nM | 11.2 µM | 7% | –
5 | C=CC(=O)NC/C=C/c1nc(NC2CCN(C)CC2)c2cc(OC)c(OC)cc2n1 | > 30000 nM | > 30 µM | – | –
6 | COc1cc2nc(N3CCCN(C)CC3)nc(NC3CCN(Cc4ccccc4)CC3)c2cc1OC | – | – | – | IC50 at 2 days [13]: 4.28 µM
7 | CCC(=O)N1CCC=C(c2nc(NC3CCN(C)CC3)c3cc(OC)c(OC)cc3n2)C1 | – | – | – | inhibition [14]: inactive

The remaining molecules from weak to strong by IC50 (MDA-MB-231 [1]), led by results:

Row | IC50 (MDA-MB-231 [1]) | IC50 (4T1; [16]) | inhibition [2] | Structure (SMILES) | further results
8 | 10500 nM | 28.6 µM | – | C=CC(=O)N1CCC=C(c2nc(NC3CCN(Cc4ccccc4)CC3)c3cc(OC)c(OC)cc3n2)C1 | –
9 | 3520 nM | 8.94 µM | 98% | C=CC(=O)N1CCC=C(c2nc(NC3CCN(C)CC3)c3cc(OC)c(OC)cc3n2)C1 | inhibition [3]: Active
10 | 2260 nM | > 30 µM | 56% | C=CC(=O)NC/C=C/c1nc(NC2CCN(C(C)C)CC2)c2cc(OC)c(OC)cc2n1 | –
11 | 2070 nM | 17.6 µM | 60% | C=CC(=O)NC/C=C/c1nc(NC2CCN(Cc3ccccc3)CC2)c2cc(OC)c(OC)cc2n1 | –
12 | 1600 nM | 8.96 µM | 38% | C=CC(=O)N1CC=C(c2nc(NC3CCN(Cc4ccccc4)CC3)c3cc(OC)c(OC)cc3n2)C1 | –
13 | 1530 nM | 10.4 µM | 26% | C=CC(=O)Nc1cccc(-c2nc(NC3CCN(C(C)C)CC3)c3cc(OC)c(OC)cc3n2)c1 | –
14 | 1270 nM | 28.1 µM | 24% | C=CC(=O)N1CC=C(c2nc(NC3CCN(C(C)C)CC3)c3cc(OC)c(OC)cc3n2)C1 | –
15 | 990 nM | – | – | COc1cc2c(NC3CCN(C(C)C)CC3)nc(N3CCC(F)(F)CC3)nc2cc1OCCCN1CCCC1 | IC50 (4T1; 4t1): 1.55 µM; IC50 (MDA-MB-231 [4]): 1000 nM; inhibition (MDA-MB-231 [5]): Active; viability at 20 µM (MDA-MB-231 [6]): 7.16%; Activity (MDA-MB-231 [7]): 72.11%; Activity (MDA-MB-231 [8]): 16.69%; Activity (MDA-MB-231 [9]): 4.04%; inhibition [10]: Dose-Dependent Effect; Activity (MDA-MB-231 [11]): inactive; inhibition [12]: inactive; IC50 at 2 days [13]: 6.99 µM
16 | 890 nM | 10.4 µM | 98% | C=CC(=O)N1CC=C(c2nc(NC3CCN(C)CC3)c3cc(OC)c(OC)cc3n2)C1 | inhibition [3]: Active

Reference: ChEMBL document CHEMBL5634121, “Discovery of novel G9a/GLP covalent inhibitors for the treatment of triple-negative breast cancer” (Eur J Med Chem, 2023)
